Where a name gives a salt, the structure may show the parent alone.
Legend:
[1] = system: mouse acetylcholine bromide-induced abdominal constriction; test: Mouse acetylcholine bromide-induced abdominal constriction assay; type: in vivo; conditions: 150 μmole/Kg p.o., 30 min before 5.5 mg/kg acetylcholine bromide i.p.
Method: Mouse Acetylcholine Bromide-Induced Abdominal Constriction Assay
The mouse acetylcholine-induced abdominal constriction assay (as described by Collier et al. in Brit. J. Pharmacol. Chem. Ther., 1968, 32: 295-310 with minor modifications) was used to assess analgesic potency of the compounds of formula (I). The test drugs or appropriate vehicles were administered orally (p.o.) and 30 min later the animal received an intraperitoneal (i.p.) injection of 5.5 mg/kg acetylcholine bromide (Matheson, Coleman and Bell, East Rutherford, N.J.). The mice were then placed in groups of three into glass bell jars and observed for a ten min observation period for the occurrence of an abdominal constriction response (defined as a wave of constriction and elongation passing caudally along the abdominal wall, accompanied by a twisting of the trunk and followed by extension of the hind limbs). For compounds of the present invention, the percent inhibition of this response to a nociceptive stimulus (equated to % analgesia) was calculated as follows: [formula]

| SMILES | melting point | percent inhibition of abdominal constriction response (% analgesia) [1] [%] |
| --- | --- | --- |
| CCNC(=O)c1ccc(C(=C2CC3CCC(C2)N3CCc2ccccc2)c2ccccc2)cc1 (as salt: HCl) [Example 26, N-Ethyl-4-[(8-phenethyl-8-azabicyclo[3.2.1]oct-3-ylidene)phenylmethyl]benzamide] | 296 to 298 °C (dec.) | – |
| NC(=O)c1ccc(C(=C2CC3CCC(C2)N3CCc2ccccc2)c2ccccc2)cc1 (as salt: hydrochloride) [Example 29, 4-[(8-Phenethyl-8-azabicyclo[3.2.1]oct-3-ylidene)phenylmethyl]benzamide Hydrochloride [1:1].] | 210 to 212 °C | – |
| CCN(CC)C(=O)c1ccc(C(=C2CC3CCC(C2)N3CCc2ccccc2)c2ccccc2)cc1 (single isomer, unassigned; (+)) (as salt: hydrochloride) [Example 24] | 211 to 212 °C | – |
| CCN(CC)C(=O)c1ccc(C(=C2CC3CCC(C2)N3CCc2ccccc2)c2ccccc2)cc1 (single isomer, unassigned; (-)) (as salt: hydrochloride) [Example 23] | 210 to 211 °C | – |
| CCN(CC)C(=O)c1ccc(C(=C2CC3CCC(C2)N3C)c2ccccc2)cc1.Cl [Example 1, N,N-Diethyl-4-[(8-methyl-8-azabicyclo[3.2.1]oct-3-ylidene)phenylmethyl]benzamide Hydrochloride [1:1]] | 145 to 147 °C | 87 |
| CCN(CC)C(=O)c1ccc(C(=C2CC3CCC(C2)N3)c2ccccc2)cc1.Cl [Example 2, N,N-Diethyl-4-[(8-azabicyclo[3.2.1]oct-3-ylidene)phenylmethyl]benzamide Hydrochloride [1:1]] | 128 to 132 °C | – |
| CCCN1C2CCC1CC(=C(c1ccccc1)c1ccc(C(=O)N(CC)CC)cc1)C2.Cl [Example 18, N,N-Diethyl-4-[(8-propyl-8-azabicyclo[3.2.1]oct-3-ylidene)phenylmethyl]benzamide Hydrochloride [1:1]] | 184 °C | – |
| CN(C(=O)c1cccc(C(=C2CC3CCC(C2)N3C)c2ccccc2)c1)c1cccc(F)c1.O=C(O)/C=C/C(=O)O [Example 22, N-(3-Fluorophenyl)-N-methyl-3-[(8-methyl-8-azabicyclo[3.2.1]oct-3-ylidene)phenylmethyl]benzamide Fumarate [1:1]] | 122 to 125 °C | – |
